Each molecule was assayed against T1, glutaminase (GAC) (Homo sapiens, UniProt O94925) (assay: Glutaminase (GAC) coupled endpoint enzymatic assay (glutamate dehydrogenase/diaphorase/resazurin, Ex544/Em590)). Conditions: inhibition of glutaminase, tested in an assay of Example A or Example B; class symbols A-E.
T1 sequence (O94925 55-598 isoform O94925-3 limits assumed): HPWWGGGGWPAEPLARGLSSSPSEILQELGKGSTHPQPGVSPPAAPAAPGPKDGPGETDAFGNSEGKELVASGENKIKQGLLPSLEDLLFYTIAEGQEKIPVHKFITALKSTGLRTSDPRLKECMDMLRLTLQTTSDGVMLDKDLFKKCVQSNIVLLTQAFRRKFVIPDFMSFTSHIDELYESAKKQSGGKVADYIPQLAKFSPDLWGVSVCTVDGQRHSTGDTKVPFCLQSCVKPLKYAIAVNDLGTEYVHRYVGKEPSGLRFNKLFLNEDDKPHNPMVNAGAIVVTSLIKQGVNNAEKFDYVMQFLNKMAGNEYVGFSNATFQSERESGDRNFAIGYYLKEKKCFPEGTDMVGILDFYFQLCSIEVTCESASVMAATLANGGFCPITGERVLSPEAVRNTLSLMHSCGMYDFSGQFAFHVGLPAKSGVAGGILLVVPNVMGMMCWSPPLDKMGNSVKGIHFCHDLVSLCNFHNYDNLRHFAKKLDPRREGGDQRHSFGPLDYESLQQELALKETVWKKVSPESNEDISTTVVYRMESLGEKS
Format: biochemical
Description: In certain embodiments, exemplary compounds of Formula I include the compounds described in Table 1 and in the Examples. A compound described herein may be tested for its ability to inhibit glutaminase, e.g., by an assay as described in the Examples. For simplicity, the inhibition activity of these compounds is represented as an IC50 tested in an assay of Example A or Example B in Table 1. […] “N/A” refers to compounds wherein the IC50 is unavailable.
In this example, the enzymatic activity of glutaminase is measured through a coupled endpoint assay. Glutamine and phosphate are supplied to GAC at a concentration equal to Km and AC50, respectively, and GAC concentration is adjusted to give a linear reaction for 60 minutes. The glutamate produced is converted to 2-OG by a kinetic excess of glutamate dehydrogenase. This second step is configured for 2× Km for NAD, since excess NAD is inhibitory. However, a kinetic excess of the third coupling enzyme, diaphorase, recycles NAD from NADH to keep the NAD concentration constant during the timecourse of the assay. Diaphorase, also supplied in kinetic excess, oxidizes NADH produced by GDH back to NAD with the concomitant reduction of rezasurin to the highly fluorescent resorufin. Resorufin in measured after the assay is stopped with SDS by Ex544/Em590. A reduction in the signal indicates inhibition of some component of the coupled enzyme system. Prospective hits are counterscreened against GDH/diaphorase alone to remove hits to the coupling enzyme system in a second assay.
2. Buffers 2× Buffer (300 mM NaCl, 100 mM HEPES pH 8.5, 0.1% BSA, 0.5 mM EDTA, 100 mM sodium phosphate pH 8.5) 5× Substrate Mix (1× Buffer final concentration, with 13 mM glutamine, 100 μM resazurin, 50 μg/ml diaphorase) 1.2× Enzyme Mix (1× Buffer final concentration, with 0.875 μg/ml GAC, 1.56 mM NAD, 6.25 units/ml GDH) Stop Mix (6% SDS in ddH2O) Reaction Procedure 1. Add 1 μl compound in 100% DMSO 2. Add 40 μl of Enzyme Mix and incubate for 60 minute at room temperature 3. Add 10 μl of Substrate Mix to start reaction 4. Stop reaction with 25 μl of 6% SDS and read Ex544 Em 590

IC50 [µM] | Compound
0.1 to 0.5 | CC(C)Oc1cccc(CC(=O)Nc2nnc([C@H]3CCC[C@H](c4nnc(NC(=O)Cc5cccc(OC(C)C)c5)s4)C3)s2)c1 [Compound 91, N,N′-(5,5′-((1S,3S)-cyclohexane-1,3-diyl)bis(1,3,4-thiadiazole-5,2-diyl))bis(2-(3-isopropoxyphenyl)acetamide)]
0.1 to 0.5 | CC(C)Oc1ccccc1CC(=O)Nc1nnc([C@H]2CCC[C@H](c3nnc(NC(=O)Cc4ccccc4OC(C)C)s3)C2)s1 [Compound 92, N,N′-(5,5′-((1S,3S)-cyclohexane-1,3-diyl)bis(1,3,4-thiadiazole-5,2-diyl))bis(2-(2-isopropoxyphenyl)acetamide)]
0.1 to 0.5 | Cc1cccc(CC(=O)Nc2nnc([C@H]3CCC[C@H](c4nnc(NC(=O)Cc5cccc(C)c5)s4)C3)s2)c1 [Compound 111, N,N′-(5,5′-((1S,3S)-cyclohexane-1,3-diyl)bis(1,3,4-thiadiazole-5,2-diyl))bis(2-m-tolylacetamide)]
< 0.1 | O=C(Cc1ccccn1)Nc1nnc([C@H]2CC[C@H](c3nnc(NC(=O)Cc4ccccn4)s3)C2)s1 [Compound 309]
< 0.1 | O=C(Cc1cccc(N2CC(F)C2)c1)Nc1nnc([C@H]2CCC[C@H](c3nnc(NC(=O)Cc4cccc(N5CC(F)C5)c4)s3)C2)s1 [Compound 348]
< 0.1 | O=C(Cc1cccc(N2CC(F)(F)C2)n1)Nc1nnc([C@H]2CCC[C@H](c3nnc(NC(=O)CC4CC4)s3)C2)s1 [Compound 349, 2-cyclopropyl-N-(5-((1S,3S)-3-(5-(2-(6-(3,3-difluoroazetidin-1-yl)pyridin-2-yl)acetamido)-1,3,4-thiadiazol-2-yl)cyclohexyl)-1,3,4-thiadiazol-2-yl)acetamide]
< 0.1 | COCCOc1ccnc(CC(=O)Nc2nnc([C@H]3CCC[C@H](c4nnc(NC(=O)Cc5cc(OCCOC)ccn5)s4)C3)s2)c1 [Compound 353]
< 0.1 | N#Cc1cccc(CC(=O)Nc2nnc([C@H]3CCC[C@H](c4nnc(NC(=O)Cc5cccc(C6CCNCC6)c5)s4)C3)s2)c1 [Compound 355]
< 0.1 | O=C(Cc1ccc(N2CC(F)C2)cn1)Nc1nnc([C@H]2CCC[C@H](c3nnc(NC(=O)Cc4ccc(N5CC(F)C5)cn4)s3)C2)s1 [Compound 357]
< 0.1 | CN1CCC(c2cccc(CC(=O)Nc3nnc([C@H]4CCC[C@H](c5nnc(NC(=O)Cc6cccc(C7CCN(C)CC7)c6)s5)C4)s3)c2)CC1 [Compound 362, N,N′-(5,5′-((1S,3S)-cyclohexane-1,3-diyl)bis(1,3,4-thiadiazole-5,2-diyl))bis(2-(3-(1-methylpiperidin-4-yl)phenyl)acetamide)]
< 0.1 | O=C(Cc1ccc(N2CC(F)C2)cn1)Nc1nnc([C@H]2CC[C@H](c3nnc(NC(=O)Cc4ccc(N5CC(F)C5)cn4)s3)C2)s1 [Compound 363]
< 0.1 | O=C(Cc1cccc(OC(F)(F)F)c1)Nc1nnc([C@H]2CCC[C@H](c3nnc(NC(=O)[C@H](O)c4ccccc4)s3)C2)s1 [Compound 365, (R)-2-hydroxy-2-phenyl-N-(5-((1S,3S)-3-(5-(2-(3-(trifluoromethoxy)phenyl)acetamido)-1,3,4-thiadiazol-2-yl)cyclohexyl)-1,3,4-thiadiazol-2-yl)acetamide]
< 0.1 | N#Cc1cccc(CC(=O)Nc2nnc([C@H]3CCC[C@H](c4nnc(NC(=O)Cc5cccc(N6CC(N)C6)n5)s4)C3)s2)c1 [Compound 366, 2-(6-(3-aminoazetidin-1-yl)pyridin-2-yl)-N-(5-((1S,3S)-3-(5-(2-(3-cyanophenyl)acetamido)-1,3,4-thiadiazol-2-yl)cyclohexyl)-1,3,4-thiadiazol-2-yl)acetamide]

The next lines start with the molecule.

Compound | IC50 [µM]
O=C(Cc1nccs1)Nc1nnc([C@H]2CCC[C@H](c3nnc(NC(=O)Cc4nccs4)s3)C2)s1 [Compound 100] | < 0.1
CC(=O)Nc1cccc(CC(=O)Nc2nnc([C@H]3CCC[C@H](c4nnc(NC(=O)Cc5cccc(NC(C)=O)n5)s4)C3)s2)n1 [Compound 104, N,N′-(5,5′-((1S,3S)-cyclohexane-1,3-diyl)bis(1,3,4-thiadiazole-5,2-diyl))bis(2-(6-acetamidopyridin-2-yl)acetamide)] | < 0.1
COc1cccc(CC(=O)Nc2nnc([C@H]3CCC[C@H](c4nnc(NC(=O)Cc5cccc(OC)c5OC)s4)C3)s2)c1OC [Compound 112, N,N′-(5,5′-((1S,3S)-cyclohexane-1,3-diyl)bis(1,3,4-thiadiazole-5,2-diyl))bis(2-(2,3-dimethoxyphenyl)acetamide)] | < 0.1
O=C(Cc1csc(N2CC(F)(F)C2)n1)Nc1nnc([C@H]2CCC[C@H](c3nnc(NC(=O)Cc4csc(N5CC(F)(F)C5)n4)s3)C2)s1 [Compound 336] | < 0.1
O=C(Cc1ccnc(N2CC(F)(F)C2)n1)Nc1nnc([C@H]2CCC[C@H](c3nnc(NC(=O)Cc4ccnc(N5CC(F)(F)C5)n4)s3)C2)s1 [Compound 346, N,N′-(5,5′-((1R,3R)-cyclohexane-1,3-diyl)bis(1,3,4-thiadiazole-5,2-diyl))bis(2-(2-(3,3-difluoroazetidin-1-yl)pyrimidin-4-yl)acetamide)] | < 0.1
COc1ccc(CC(=O)Nc2nnc([C@H]3CC[C@H](c4nnc(NC(=O)Cc5ccc(OC)cn5)s4)C3)s2)nc1 [Compound 347, N,N′-(5,5′-((1S,3S)-cyclopentane-1,3-diyl)bis(1,3,4-thiadiazole-5,2-diyl))bis(2-(5-methoxypyridin-2-yl)acetamide)] | < 0.1
O=C(Cc1cccc(CO)c1)Nc1nnc([C@H]2CCC[C@H](c3nnc(NC(=O)Cc4cccc(CO)c4)s3)C2)s1 [Compound 351] | < 0.1
O=C(Cc1cncc(N2CC(F)(F)C2)n1)Nc1nnc([C@H]2CCC[C@H](c3nnc(NC(=O)Cc4cncc(N5CC(F)(F)C5)n4)s3)C2)s1 [Compound 354] | < 0.1
O=C(Cc1cc(OC(F)F)ccn1)Nc1nnc([C@H]2CCC[C@H](c3nnc(NC(=O)Cc4cc(OC(F)F)ccn4)s3)C2)s1 [Compound 356, N,N′-(5,5′-((1S,3S)-cyclohexane-1,3-diyl)bis(1,3,4-thiadiazole-5,2-diyl))bis(2-(4-(difluoromethoxy)pyridin-2-yl)acetamide)] | < 0.1
COc1ccc(CC(=O)Nc2nnc([C@H]3CC[C@H](c4nnc(NC(=O)Cc5cccc(N6CC(F)(F)C6)n5)s4)C3)s2)cn1 [Compound 358] | < 0.1
COc1ccc(CC(=O)Nc2nnc([C@H]3CCC[C@H](c4nnc(NC(=O)Cc5cccc(N6CC(F)(F)C6)n5)s4)C3)s2)cn1 [Compound 359] | < 0.1
N#Cc1cccc(CC(=O)Nc2nnc([C@H]3CCC[C@H](c4nnc(NC(=O)Cc5cccc(CN)c5)s4)C3)s2)c1 [Compound 361] | < 0.1
O=C(Cc1cccc(OC(F)(F)F)c1)Nc1nnc([C@H]2CCC[C@H](c3nnc(NC(=O)Cc4ccccn4)s3)C2)s1 [Compound 364, 2-(pyridin-2-yl)-N-(5-((1S,3S)-3-(5-(2-(3-(trifluoromethoxy)phenyl)acetamido)-1,3,4-thiadiazol-2-yl)cyclohexyl)-1,3,4-thiadiazol-2-yl)acetamide] | < 0.1
N#Cc1cccc(CC(=O)Nc2nnc([C@H]3CCC[C@H](c4nnc(NC(=O)Cc5cccc(C6CCCNC6)c5)s4)C3)s2)c1 (stereo partly drawn) [Compound 367, 2-(3-cyanophenyl)-N-(5-((1S,3S)-3-(5-(2-(3-(piperidin-3-yl)phenyl)acetamido)-1,3,4-thiadiazol-2-yl)cyclohexyl)-1,3,4-thiadiazol-2-yl)acetamide] | < 0.1
CC(=O)N(C)c1ccc(CC(=O)Nc2nnc([C@H]3CCC[C@H](c4nnc(NC(=O)Cc5ccc(N(C)C(C)=O)cn5)s4)C3)s2)nc1 [Compound 368] | < 0.1
O=C(Cc1cccc(N2CC(F)(F)C2)n1)Nc1nnc([C@H]2CCC[C@H](c3nnc(NC(=O)[C@H](O)c4ccccc4)s3)C2)s1 [Compound 369] | < 0.1

Reference: US10087172B2, “Compounds and their methods of use” (AGIOS PHARMACEUTICALS, INC, priority 2012, dated 2018)
